Here are results for one compound from patent publication US20120135089A1, “E3 LIGASE INHIBITORS” (priority 2009, published 2012).

The test system of assay [1] is p53/Mdm2, p53/MdmX or Mdm2/MdmX complex. As to the kind of experiment: co-immunoprecipitation of p53/Mdm2/MdmX complexes in MCF7 cells. The assay is classed as cell-based, human. As to conditions: 10 μg/ml, 6 hours. The procedure: MCF7 cells were seeded in a 10-cm dish overnight and treated for 6 hours with 10 μg/ml (28 μM) MEL23, 5.3 μg/ml (10 μM) Nutlin-3a or DMSO. […] The experimental conditions of the results shown in FIG. 33B were as follows: FLAG-Mdm2 was transfected into cells and after 24 hours, treated with compounds, and cell lysates were incubated with anti-FLAG M2 antibody for 2 hours, followed by incubation with Protein-A/G sepharose beads for an hour at 4° C. Beads were washed and proteins eluted with 5×SDS and separated on SDS-PAGE.

Assay [2] has as its system Mdm2, p21, puma, and bax transcripts. As to the kind of experiment: qRT-PCR of p53 target genes in RKO cells. The assay is classed as cell-based, human. The conditions noted are these: 5 μg/ml MEL23, 24 or 48 hours. As to the method:
RKO cells were treated with 5 μg/ml (14 μM) MEL23 for 24 or 48 hours. Quantitative real-time PCR was used to analyze the mRNA levels of the Mdm2, p21, puma, and bax transcripts. All values are normalized to no treatment, DMSO control. The figure is representative of three independent experiments and standard error bars represent intra-experimental error.
RKO cells were treated with 5 μg/ml (14 μM) MEL23 for 24 or 48 hours, 0.1 μg/ml (0.2 μM) doxorubicin for 48 hours, or 10 μM ALLN for 24 hours. Quantitative real-time PCR was used to analyze mRNA levels of the Mdm2, p21, puma, and bax transcripts. All values were normalized to no treatment (NT), DMSO control. The figure is representative of three independent experiments and standard error bars represent intra-experimental error.
RNA was harvested using RNeasy Mini kit (Qiagen, Cat. No. 74104) and first-strand cDNA synthesis was performed with the TaqMan Reverse Transcription Reagents for qRT-PCR (Applied Biosystems Inc., Foster City, Calif., Cat. No. N8080234) according to the manufacturers' protocol. Samples were analyzed by quantitative real-time PCR on an ABI 7300 real-time PCR instrument (Applied Biosystems) using the ΔΔCT method. PCR reaction mixtures contained 75 ng of cDNA, 1×SYBR Green Mix (Applied Biosystems, Cat. No. 4367659), and 100 nM primers. Values were normalized to those of the hprt1 housekeeping gene (47).

A further assay concerns RKO and RKO-E6 cells. As to the kind of experiment: Alamar Blue viability assay, RKO and RKO-E6 cells. It counts as cell-based, human. As to conditions: 48 hours, dilution series. As to the method: RKO and RKO-E6 cells were seeded in 384-well plates and treated with a dilution series of MEL23 for 48 hours as indicated. Alamar Blue was added for 16 hours and fluorescence determined on a Victor3 Plate Reader. The median percent inhibition of five replicates was determined and normalized to a no treatment control. One standard deviation is shown. […] Cells were seeded in 384-well plates and treated with a dilution series of MEL23 for 48 hours at the indicated concentrations. Alamar Blue was added for 16 hours and fluorescence determined on a Victor3 Plate Reader. The median percent inhibition of five replicates was determined and normalized to a no treatment control. One standard deviation is shown.
Cells were seeded in 384-well black clear-bottom plates (Corning Inc., Corning, N.Y., Cat. No. 07-200-655). Cells were then treated with the indicated concentration of compound. Plates were incubated for 48 hours at 37° C. Alamar Blue (Invitrogen, Cat. No. DAL1100) was added to each well to a final concentration of 10% and incubated at 37° C. for 16 hours. Fluorescence intensity was determined using the Victor3 Plate Reader (PerkinElmer). Median percent survival or growth inhibition was calculated and normalized to a no treatment control.
For orientation: Resazurin is reduced to fluorescent resorufin, in cell work by metabolically active cells.

The target of assay [3] is T1, Mdm2 RING-MdmX RING hetero-complex (Homo sapiens, UniProt O15151+Q00987).
T1 construct: 500 ng GST-Mdm2 (residues 400-491); GST-MdmX (residues 410-490); made in house
T1 sequence (Q00987 400-491): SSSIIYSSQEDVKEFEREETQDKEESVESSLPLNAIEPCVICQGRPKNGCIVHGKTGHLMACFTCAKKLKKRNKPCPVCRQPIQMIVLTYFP
T1 sequence (O15151 410-490): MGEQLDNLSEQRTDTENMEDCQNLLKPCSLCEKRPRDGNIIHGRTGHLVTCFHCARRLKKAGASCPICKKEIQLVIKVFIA
As to the kind of experiment: in vitro ubiquitination assay, Mdm2 RING-MdmX RING. It counts as biochemical. The procedure:
These assays were performed with 100 ng of full-length Flag-Mdm2 or 200 ng of Flag-Mdm2/HA-MdmX complexes (100 ng of each protein as each are present in a 1:1 ratio, when purified), ^32P-labeled ubiquitin, UbCH5c, and E1. Following a 30-minute incubation at 37° C., reactions were terminated and resolved on a SDS-PAGE gel followed by autoradiography. PC indicates positive control, and NC indicates negative control with UbCH5C eliminated from the reaction. The gels were quantified by phosphoimaging using ImageQuant software (GE Healthcare Bio-Sciences Corp., Piscataway, N.J.). […] Reactions were performed as in FIG. 11A except 500 ng GST-Mdm2 (residues 400-491) and GST-MdmX (residues 400-490) were used for ubiquitin polymerization. […] Reactions were performed as in FIG. 11A except with 3 μg of the Roc1/Cul1 ligase complex. Ubiquitination activity of the complex was tested in the presence of increasing concentrations of MEL23 and MEL24.
Radiolabeled in vitro ubiquitination assays were carried out in 30 μl reaction mixtures with ^32P-labeled ubiquitin. 500 ng GST-Mdm2 (residues 400-491) and GST-MdmX (residues 410-490) were used for the RING-RING reactions. The products of the reaction were resolved on a SDS-PAGE gel and visualized by autoradiography.

Entries after “also recorded” stand apart in the source; their conditions may differ.

Consider `CCCCn1c(=O)[nH]c(O)c(C2NCCc3c2[nH]c2ccccc32)c1=O` (centres unmarked) [MEL23], for which the “complex formation (co-immunoprecipitation)” value in assay [1] is “did not inhibit p53-Mdm2 complex formation; also recorded: does not inhibit”. Further, the “mRNA levels of p53 target genes Mdm2, p21, Bax, puma” value in assay [2] was “increased within 48 hours of treatment; also recorded: increased the transcription of p53 target genes to intermediate levels compared to doxorubicin and ALLN”. For the same compound, in the assay with RKO and RKO-E6 cells, the RKO cell survival result is given as “decreased in a dose-dependent manner” and the RKO-E6 cell survival entry was “remained largely unaffected”. Also, in assay [3], the “ubiquitination of the Mdm2 RING-MdmX RING hetero-complex” value is recorded as “inhibited”.
